According to patent US20220409629A1, “BENZODIAZEPINE DERIVATIVES FOR TREATING A RESPIRATORY SYNCYTIAL VIRUS (RSV) INFECTION” (priority 2019, published 2022):

Experiments:
[1] = Liver microsomal stability, rat; assay type: in vitro ADME; details: pH 7.4; rat liver microsomes, 0.5 mg/mL protein, 1 μM compound, NADPH; >80% remaining at 45 min denoted >140; read-out: Liver Microsomal Stability: t1/2 (min); rat
Description: (§1) Compounds were subjected to the following assays to investigate liver microsomal stability, permeability and plasma protein binding.
(§2) Pooled liver microsomes were purchased from a reputable commercial supplier and stored at −80° C. prior to use. Microsomes (final protein concentration 0.5 mg/mL), 0.1 M phosphate buffer pH 7.4 and test compound (final substrate concentration 1 μM; final DMSO concentration 0.25%) were pre-incubated at 37° C. prior to the addition of NADPH (final concentration 1 mM) to initiate the reaction. The final incubation volume was 50 μL. A control incubation was included for each compound tested where 0.1 M phosphate buffer pH 7.4 was added instead of NADPH (minus NADPH). Two control compounds were included with each species. All incubations were performed singularly for each test compound. Each compound was incubated for 0, 5, 15, 30 and 45 min. The control (minus NADPH) was incubated for 45 min only. The reactions were stopped by transferring incubate into acetonitrile at the appropriate time points, in a 1:3 ratio. The termination plates are centrifuged at 3,000 rpm for 20 min at 4° C. to precipitate the protein. Following protein precipitation, the sample supernatants were combined in cassettes of up to 4 compounds, internal standard added, and samples analysed by LC-MS/MS. From a plot of ln peak area ratio (compound peak area/internal standard peak area) against time, the gradient of the line was determined. Subsequently, half-life (t1/2) and intrinsic clearance (CLint) were calculated.

[2] = Cell cytotoxicity CC50; assay type: cell-based; details: human; mean of at least two experiments
[3] = Liver microsomal stability, dog; assay type: in vitro ADME; details: pH 7.4; dog liver microsomes, 0.5 mg/mL protein, 1 μM compound, NADPH; >80% remaining at 45 min denoted >140; read-out: Liver Microsomal Stability: t1/2 (min); dog
Description: as §1, §2

[4] = Liver microsomal stability, human; assay type: in vitro ADME; details: pH 7.4; human liver microsomes, 0.5 mg/mL protein, 1 μM compound, NADPH; >80% remaining at 45 min denoted >140; read-out: Liver Microsomal Stability: t1/2 (min); human
Description: as §1, §2

[5] = tested on: RSV A2; test: RSV plaque reduction assay; assay type: cell-based, respiratory syncytial virus (RSV); details: human respiratory syncytial virus, HepG2; Hep-G2 cells, RSV A2, mean of at least two experiments
Description: Compounds were subjected to RSV plaque reduction assays according to the following protocol.
Hep-G2 cells (ECACC, 85011430) were passaged in flasks and seeded in 24-well plates in DMEM containing antibiotics and supplemented with 10% FBS. During inoculation and subsequent incubation, cells were cultured in DMEM containing 2% FBS. 100 plaque forming unit/well of RSV (RSV A2 ECACC, 0709161v) was mixed with eight serial dilutions of compound. Subsequently, 100 μL of the virus/compound mixtures was added to confluent Hep-G2 cell monolayers. The cells and virus/compound mixtures were incubated at 37° C. in a humidified 5% CO2 incubator for 2 h prior to removal of the inoculum and addition of 1 mL of overlay (DMEM containing 2% FBS and 0.8% CMC) containing compound dilutions. The cells and were incubated at 37° C. in a humidified 5% CO2 incubator for 2 days.
Cells were washed with PBS before adding 75/25% v/v EtOH/MeOH, for 3 min. Fixative was removed and plates were washed with PBS. A pre-titrated amount of the primary antibody was added in 200 μL PBS/2% milk powder, and plates incubated for 90 min at 37° C. The plates were washed 3 times with PBS/0.05% Tween20 before addition of rabbit anti-goat horse radish peroxidase in 200 μL PBS/2% milk powder, and incubated for 1 h at 37° C. Following three wash steps with PBS/0.05% Tween20, 200 μL ready-to-use TrueBlue was added and plates were incubated at rt for 10-15 min before washing with water. After removal of water, plates were air-dried in the dark.
Plates were scanned and analysed using the Immunospot S6 Macro analyser, which is equipped with BioSpot analysis software for counting immunostained plaques (virospots). Plaque counts were used to calculate % infection relative to the mean of the plaque count in the virus control wells for RSV. The EC50 value was calculated as 50% reduction in signal, respectively, by interpolation of inhibition curves fitted with a 4-parameter nonlinear regression with a variable slope in Dotmatics. Plaque EC50 and cell toxicity CC50 values are a mean of at least two experiments and figures are rounded to whole units.

Row | SMILES | half-life [1] [min] | CC50 [2] [nM] | half-life [3] [min] | half-life [4] [min] | EC50 [5] [nM]
1 | CCNc1ccc(-c2c(C(=O)N[C@H]3N=C(c4ccccc4)c4cccc(F)c4NC3=O)cnn2C2COC2)c(F)n1 [Example 40, 5-[6-(Ethylamino)-2-fluoropyridin-3-yl]-N-[(3S)-9-fluoro-2-oxo-5-phenyl-1,3-dihydro-1,4-benzodiazepin-3-yl]-1-(oxetan-3-yl)pyrazole-4-carboxamide] | 81.1 | > 25000 | 72.9 | 49.6 | 67
2 | O=C(N[C@H]1N=C(c2ccccc2)c2ccccc2NC1=O)c1cnn(C2CCOCC2)c1-c1ccc(C2CC2)cc1F [Example 43, 5-(4-Cyclopropyl-2-fluorophenyl)-1-(oxan-4-yl)-N-[(3S)-2-oxo-5-phenyl-1,3-dihydro-1,4-benzodiazepin-3-yl]pyrazole-4-carboxamide] | 44.9 | > 25000 | 161 | 170 | 48
3 | O=C(N[C@H]1N=C(c2ccccc2)c2cccc(F)c2NC1=O)c1cnn(C2CCOCC2)c1-c1ccc(C2CC2)cc1F [Example 44, 5-(4-Cyclopropyl-2-fluorophenyl)-N-[(3S)-9-fluoro-2-oxo-5-phenyl-1,3-dihydro-1,4-benzodiazepin-3-yl]-1-(oxan-4-yl)pyrazole-4-carboxamide] | 55.9 | > 25000 | 90 | 201 | 48
4 | CCc1ccc(-c2c(C(=O)N[C@H]3N=C(c4ccccc4)c4cccc(F)c4NC3=O)cnn2C2CCOCC2)c(F)c1 [Example 47, 5-(4-Ethyl-2-fluorophenyl)-1-(oxan-4-yl)-N-[(3S)-9-fluoro-2-oxo-5-phenyl-1,3-dihydro-1,4-benzodiazepin-3-yl]pyrazole-4-carboxamide] | 33.1 | > 25000 | 81.4 | 105 | 30
5 | CCn1ncc(C(=O)N[C@H]2N=C(c3ccccc3)c3cccc(F)c3NC2=O)c1-c1cc(C2CC2)cnc1F [Example 48, 5-(5-Cyclopropyl-2-fluoropyridin-3-yl)-1-ethyl-N-[(3S)-9-fluoro-2-oxo-5-phenyl-1,3-dihydro-1,4-benzodiazepin-3-yl]pyrazole-4-carboxamide] | 118 | > 25000 | > 140 | 355 | 92
6 | O=C(N[C@H]1N=C(c2ccccc2)c2cccc(F)c2NC1=O)c1cnn(C2CCOCC2)c1-c1ccc(C2CC2)nc1F [Example 49, 5-(6-Cyclopropyl-2-fluoropyridin-3-yl)-N-[(3S)-9-fluoro-2-oxo-5-phenyl-1,3-dihydro-1,4-benzodiazepin-3-yl]-1-(oxan-4-yl)pyrazole-4-carboxamide] | 73.4 | > 25000 | 110 | 181 | 100
7 | O=C(N[C@H]1N=C(c2ccccc2)c2ccccc2NC1=O)c1cnn(C2CCOCC2)c1-c1cc(C2CC2)cnc1F [Example 50, 5-(5-Cyclopropyl-2-fluoropyridin-3-yl)-1-(oxan-4-yl)-N-[(3S)-2-oxo-5-phenyl-1,3-dihydro-1,4-benzodiazepin-3-yl]pyrazole-4-carboxamide] | 44.2 | > 25000 | 163 | 94.3 | 81
8 | O=C(N[C@H]1N=C(c2ccccc2)c2cccc(F)c2NC1=O)c1cnn(C2CCOCC2)c1-c1cc(C2CC2)cnc1F [Example 51, 5-(5-Cyclopropyl-2-fluoropyridin-3-yl)-N-[(3S)-9-fluoro-2-oxo-5-phenyl-1,3-dihydro-1,4-benzodiazepin-3-yl]-1-(oxan-4-yl)pyrazole-4-carboxamide] | 92.8 | > 7790 | 212 | 171 | 53
9 | CCc1ccc(-c2c(C(=O)N[C@H]3N=C(c4ccccc4)c4cccc(F)c4NC3=O)cnn2C2CCOCC2)c(F)n1 [Example 53, 5-(6-Ethyl-2-fluoropyridin-3-yl)-1-(oxan-4-yl)-N-[(3S)-9-fluoro-2-oxo-5-phenyl-1,3-dihydro-1,4-benzodiazepin-3-yl]pyrazole-4-carboxamide] | 200 | > 25000 | 183 | > 140 | 72
10 | CCOc1nn(CC)c(-c2ccccc2F)c1C(=O)N[C@H]1N=C(c2ccccc2)c2cccc(F)c2NC1=O [Example 55, 3-Ethoxy-1-ethyl-N-[(3S)-9-fluoro-2-oxo-5-phenyl-1,3-dihydro-1,4-benzodiazepin-3-yl]-5-(2-fluorophenyl)pyrazole-4-carboxamide] | 26.5 | > 25000 | 39 | 41.3 | 33
11 | CN1CCC(n2ncc(C(=O)N[C@H]3N=C(c4ccccc4)c4cccc(F)c4NC3=O)c2-c2ccc(NC3CC3)nc2F)CC1 [Example 57, 5-[6-(Cyclopropylamino)-2-fluoropyridin-3-yl]-N-[(3S)-9-fluoro-2-oxo-5-phenyl-1,3-dihydro-1,4-benzodiazepin-3-yl]-1-(1-methylpiperidin-4-yl)pyrazole-4-carboxamide] | 116 | > 9410 | 175 | 84.7 | 84
